In patent US9422267B2, “Fused pyrimidine compounds and use thereof” (Medivation Technologies, Inc., priority 2012, dated 2016):
“And” between values parts separate entries of the source, which are not always exact repeats. Equal values may be shown once. Read-outs that look alike come from different tables or passages of the source.

Key:
A549 = assay: Cell Titer-Glo cell viability: A549; format: cell-based; details: Homo sapiens, A549, 72 h, A549, non-small lung carcinoma
Method: (§1) This assay quantitates the ATP present in order to determine the number of viable cells in culture. Briefly, the compounds were incubated with the cells for 72 h, followed by cell lysis. The resulting luminescent signal is proportional to the amount of ATP present and, therefore, directly proportional to the number of cells present in culture.
(§2) Compound nos. […] These cell lines are derived from human lung carcinoma, colon adenocarcinoma, colon adenocarcinoma, colon carcinoma, acute promyelocytic leukemia, colon adenocarcinoma, colon adenocarcinoma (from metastatic site lymph node), respectively.
(§3) Compounds 2b, 5, 6b and 10a were tested along with derivatives in viability assays as described above by Caliper LifeSciences Systems (Hanover, Md.), in A549, HCT-15, HCT-116, MCF-7, MDA-MB-231, OVCAR3, T47D, COLO205, HT-29, BT-20, HCC1187, HL-60, MDA-MB-175, SW-620, and UACC812 cells.

COLO 205 = assay: Cell Titer-Glo cell viability: COLO 205; format: cell-based; details: Homo sapiens, COLO 205, 72 h
Method: as §1, §2, §3

HCT-15 = assay: Cell Titer-Glo cell viability: HCT-15; format: cell-based; details: Homo sapiens, HCT-15, 72 h, HCT15, colon carcinoma
Method: as §1, §2, §3

HCT-116 = assay: Cell Titer-Glo cell viability: HCT-116; format: cell-based; details: Homo sapiens, HCT116, colon carcinoma
Method: as §1, §2, §3

SW-620 = assay: Cell Titer-Glo cell viability: SW-620; format: cell-based; details: Homo sapiens, SW-620, 72 h, SW-620, metastatic colorectal cancer
Method: as §1, §2, §3

BT-20 = assay: Cell Titer-Glo cell viability: BT-20; format: cell-based; details: Homo sapiens
Method: (§4) Compound nos. […] This panel of cell lines includes an ER− breast carcinoma, primary breast ductal carcinoma, prostate adenocarcinoma, mammary adenocarcinoma, mammary ductal carcinoma, mammary ductal carcinoma, ovary adenocarcinoma, ER+ breast carcinoma, ER-HER2+ mammary ductal carcinoma and an ER+ mammary ductal carcinoma, respectively.
as §1, §3

LNCaP = assay: Cell Titer-Glo cell viability: LNCaP; format: cell-based; details: Homo sapiens
Method: as §4, §1

MCF-7 = assay: Cell Titer-Glo cell viability: MCF-7; format: cell-based; details: Homo sapiens, MCF7, breast cancer
Method: as §4, §1, §3

MDA MB 175 = assay: Cell Titer-Glo cell viability: MDA MB 175; format: cell-based
Method: as §4, §1, §3
(§5) The inhibitory effects of Compound 8a were tested in two cell lines.

MDA MB 231 = assay: Cell Titer-Glo cell viability: MDA MB 231; format: cell-based; details: Homo sapiens, MDAMB231, breast cancer
Method: as §4, §1, §3

OVCAR-3 = assay: Cell Titer-Glo cell viability: OVCAR-3; format: cell-based; details: Homo sapiens, OVCAR3, ovarian cancer
Method: as §4, §1, §3

UACC 812 = assay: Cell Titer-Glo cell viability: UACC 812; format: cell-based; details: Homo sapiens
Method: as §4, §1, §3, §5

HCC 1187 = assay: Cell Titer-Glo cell viability: HCC 1187; format: cell-based; details: Homo sapiens
Method: as §4, §1, §3

IGF1R = IGF1R (Homo sapiens, UniProt P08069); assay: In vitro IGF-1R enzymatic assay (ADP-Glo kinase assay); format: biochemical; set-up: purchased Millipore 14-802
Method: IC50 values of the compounds of the invention against IGF-1R and IR were measured in vitro using an ADP-Glo kinase assay Kit (Promega). […] Kinase reactions in both assays were conducted at 30° C. for 20 min with increasing concentrations of compounds of the invention.

AXL = target: T1, AXL (Homo sapiens, UniProt P30530); assay: Caliper kinase profiling: AXL; details: for inhibition of AXL in panel of 11 kinases: 0.01 μM; for inhibition at 0.01 µM: read-out: Average % Inh @ 10 nM
T1 sequence (P30530 26-894): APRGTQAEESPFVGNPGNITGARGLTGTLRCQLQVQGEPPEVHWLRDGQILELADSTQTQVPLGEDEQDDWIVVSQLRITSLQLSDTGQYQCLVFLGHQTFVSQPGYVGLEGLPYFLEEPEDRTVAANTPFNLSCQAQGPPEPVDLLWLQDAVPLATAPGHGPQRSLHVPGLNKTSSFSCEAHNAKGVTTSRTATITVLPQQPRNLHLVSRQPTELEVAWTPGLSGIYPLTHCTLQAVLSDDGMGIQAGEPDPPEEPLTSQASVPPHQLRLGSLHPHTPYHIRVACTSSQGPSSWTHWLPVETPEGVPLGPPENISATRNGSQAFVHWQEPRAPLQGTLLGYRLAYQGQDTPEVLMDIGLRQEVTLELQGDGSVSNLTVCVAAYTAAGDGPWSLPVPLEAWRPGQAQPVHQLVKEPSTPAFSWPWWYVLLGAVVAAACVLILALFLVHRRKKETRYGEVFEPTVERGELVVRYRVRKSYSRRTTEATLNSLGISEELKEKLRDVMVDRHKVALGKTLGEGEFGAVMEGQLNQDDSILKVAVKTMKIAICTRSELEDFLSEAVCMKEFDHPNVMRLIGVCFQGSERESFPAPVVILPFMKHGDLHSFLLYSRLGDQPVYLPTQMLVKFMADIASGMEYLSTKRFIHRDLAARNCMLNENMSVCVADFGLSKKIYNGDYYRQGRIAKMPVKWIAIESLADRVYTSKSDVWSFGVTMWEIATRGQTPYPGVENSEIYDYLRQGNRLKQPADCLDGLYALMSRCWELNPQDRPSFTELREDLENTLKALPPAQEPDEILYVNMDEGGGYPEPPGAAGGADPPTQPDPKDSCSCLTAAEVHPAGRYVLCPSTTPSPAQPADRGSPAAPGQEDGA
Method: (§6) The compound was tested at concentrations of 1.0×10^−8 and 1.0×10^−9 M in the RapidKinase192™ panel in duplicate. […] The screening was performed using the Caliper EZReader2, a 4-sipper LabChip, and ProfilerPro Kinase Selectivity Assay Kits 1 and 2. The assay measures the conversion of a fluorescent peptide substrate to a phosphorylated product. Briefly, the reaction mixture was introduced through a capillary sipper onto the microfluidic chip, where the substrate and product were electrophoretically separated and detected by laser-induced fluorescence. The time-dependent fluorescence signal indicates the extent of the reaction.
(§7) The kinases tested were AurA, AurB, AurC, AXL, FAK2, IGF1R, InsR, Mer, MET, TrkB and TrkC.
(§8) The assays were conducted using the Caliper LabChip 3000 and a 12-sipper LabChip as described above.

FAK2(PTK2b) = FAK2(PTK2b) (Homo sapiens, UniProt Q14289); assay: Caliper kinase assay: FAK2(PTK2b); details: for inhibition of FAK2 in panel of 11 kinases: 0.01 μM
Method: as §6, §7, §8

TRKC (NTRK3) = TRKC (NTRK3) (Homo sapiens, UniProt Q16288); assay: Caliper kinase profiling: TRKC (NTRK3); details: for inhibition of TrkC in panel of 11 kinases: 0.01 μM; for inhibition at 0.01 µM: read-out: Average % Inh @ 10 nM
Method: as §6, §7, §8

[1] = 72 h incubation, Cell Titer-Glo
[2] = COLO205, colon cancer, 72 h incubation, Cell Titer-Glo
[3] = BT-20, breast cancer, 72 h incubation, Cell Titer-Glo
[4] = Prostate cancer, 72 h incubation, Cell Titer-Glo
[5] = MDA-MB-175, breast cancer, 72 h incubation, Cell Titer-Glo
[6] = UACC 812, breast cancer, 72 h incubation, Cell Titer-Glo
[7] = HCC1187, HCC-1187, breast cancer, 72 h incubation, Cell Titer-Glo
[8] = activated IGF-1R, read-out: IC50
[9] = COLO-205, colon adenocarcinoma, 72 h
[10] = IGF-1R, ATP 100 μM, run N1, read-out: IC50 (M) N1
[11] = IGF-1R, ATP 100 μM, run N2, read-out: IC50 (M) N2
[12] = read-out: Average % Inh @ 100 nM

IGF1R, sequence (P08069 31-1367): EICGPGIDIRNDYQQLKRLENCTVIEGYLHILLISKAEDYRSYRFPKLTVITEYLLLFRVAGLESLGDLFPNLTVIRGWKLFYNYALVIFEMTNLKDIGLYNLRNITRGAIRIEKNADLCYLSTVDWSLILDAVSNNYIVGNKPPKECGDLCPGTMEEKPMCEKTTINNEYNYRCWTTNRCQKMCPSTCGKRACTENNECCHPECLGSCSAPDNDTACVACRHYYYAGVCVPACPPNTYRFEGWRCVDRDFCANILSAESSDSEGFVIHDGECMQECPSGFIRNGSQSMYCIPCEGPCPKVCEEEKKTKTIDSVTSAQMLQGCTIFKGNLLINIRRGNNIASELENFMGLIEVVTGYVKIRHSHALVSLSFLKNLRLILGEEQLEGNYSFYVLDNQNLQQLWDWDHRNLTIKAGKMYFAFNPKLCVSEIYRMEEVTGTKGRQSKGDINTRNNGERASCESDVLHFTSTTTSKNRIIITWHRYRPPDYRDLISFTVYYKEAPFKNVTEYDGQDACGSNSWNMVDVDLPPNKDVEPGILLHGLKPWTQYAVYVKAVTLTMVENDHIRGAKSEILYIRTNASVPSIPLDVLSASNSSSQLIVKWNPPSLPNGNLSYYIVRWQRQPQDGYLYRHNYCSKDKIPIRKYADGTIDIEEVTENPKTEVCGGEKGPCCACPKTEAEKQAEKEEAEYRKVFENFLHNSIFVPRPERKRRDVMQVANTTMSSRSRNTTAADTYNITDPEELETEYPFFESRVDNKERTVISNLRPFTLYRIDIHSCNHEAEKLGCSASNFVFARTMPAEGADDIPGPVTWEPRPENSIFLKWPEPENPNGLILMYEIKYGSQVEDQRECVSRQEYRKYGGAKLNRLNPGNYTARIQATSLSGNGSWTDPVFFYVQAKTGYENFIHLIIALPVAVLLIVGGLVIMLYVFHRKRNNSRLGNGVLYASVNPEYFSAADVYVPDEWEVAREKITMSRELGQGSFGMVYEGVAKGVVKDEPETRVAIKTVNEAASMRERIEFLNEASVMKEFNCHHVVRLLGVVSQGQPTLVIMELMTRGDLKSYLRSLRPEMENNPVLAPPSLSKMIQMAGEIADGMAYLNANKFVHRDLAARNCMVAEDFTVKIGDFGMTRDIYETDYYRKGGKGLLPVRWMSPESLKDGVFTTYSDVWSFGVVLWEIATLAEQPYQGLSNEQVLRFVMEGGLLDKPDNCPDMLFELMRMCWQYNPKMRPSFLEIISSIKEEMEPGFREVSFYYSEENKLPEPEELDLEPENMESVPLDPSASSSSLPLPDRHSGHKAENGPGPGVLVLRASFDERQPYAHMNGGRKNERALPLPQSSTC
FAK2(PTK2b), sequence (Q14289 whole entry): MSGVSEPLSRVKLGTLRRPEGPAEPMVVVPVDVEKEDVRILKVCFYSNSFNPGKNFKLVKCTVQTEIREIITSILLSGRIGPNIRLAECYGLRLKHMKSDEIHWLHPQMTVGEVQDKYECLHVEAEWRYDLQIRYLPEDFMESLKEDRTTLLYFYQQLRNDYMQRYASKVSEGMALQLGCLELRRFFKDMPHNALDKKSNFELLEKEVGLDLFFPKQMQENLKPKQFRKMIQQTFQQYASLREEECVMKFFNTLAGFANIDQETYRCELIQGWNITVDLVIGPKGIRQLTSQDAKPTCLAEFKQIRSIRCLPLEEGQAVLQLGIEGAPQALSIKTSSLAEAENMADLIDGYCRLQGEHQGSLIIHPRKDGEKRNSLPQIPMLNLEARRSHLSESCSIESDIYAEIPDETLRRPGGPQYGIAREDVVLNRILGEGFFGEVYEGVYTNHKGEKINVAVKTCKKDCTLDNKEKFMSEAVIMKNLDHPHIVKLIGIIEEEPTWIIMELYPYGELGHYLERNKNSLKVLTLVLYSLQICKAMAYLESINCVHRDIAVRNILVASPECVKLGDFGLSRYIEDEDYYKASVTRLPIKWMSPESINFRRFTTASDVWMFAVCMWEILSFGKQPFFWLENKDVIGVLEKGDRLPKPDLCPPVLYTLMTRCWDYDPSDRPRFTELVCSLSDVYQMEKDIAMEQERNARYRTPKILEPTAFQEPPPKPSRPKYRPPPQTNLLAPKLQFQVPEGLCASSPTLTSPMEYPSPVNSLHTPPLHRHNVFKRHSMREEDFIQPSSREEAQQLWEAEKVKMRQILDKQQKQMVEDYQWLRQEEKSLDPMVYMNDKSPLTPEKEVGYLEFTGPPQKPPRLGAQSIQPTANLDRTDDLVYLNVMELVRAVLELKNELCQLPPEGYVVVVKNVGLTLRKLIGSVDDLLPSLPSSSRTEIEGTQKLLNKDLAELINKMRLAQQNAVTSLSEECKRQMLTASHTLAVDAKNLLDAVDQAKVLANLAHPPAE
TRKC (NTRK3), sequence (Q16288 32-839): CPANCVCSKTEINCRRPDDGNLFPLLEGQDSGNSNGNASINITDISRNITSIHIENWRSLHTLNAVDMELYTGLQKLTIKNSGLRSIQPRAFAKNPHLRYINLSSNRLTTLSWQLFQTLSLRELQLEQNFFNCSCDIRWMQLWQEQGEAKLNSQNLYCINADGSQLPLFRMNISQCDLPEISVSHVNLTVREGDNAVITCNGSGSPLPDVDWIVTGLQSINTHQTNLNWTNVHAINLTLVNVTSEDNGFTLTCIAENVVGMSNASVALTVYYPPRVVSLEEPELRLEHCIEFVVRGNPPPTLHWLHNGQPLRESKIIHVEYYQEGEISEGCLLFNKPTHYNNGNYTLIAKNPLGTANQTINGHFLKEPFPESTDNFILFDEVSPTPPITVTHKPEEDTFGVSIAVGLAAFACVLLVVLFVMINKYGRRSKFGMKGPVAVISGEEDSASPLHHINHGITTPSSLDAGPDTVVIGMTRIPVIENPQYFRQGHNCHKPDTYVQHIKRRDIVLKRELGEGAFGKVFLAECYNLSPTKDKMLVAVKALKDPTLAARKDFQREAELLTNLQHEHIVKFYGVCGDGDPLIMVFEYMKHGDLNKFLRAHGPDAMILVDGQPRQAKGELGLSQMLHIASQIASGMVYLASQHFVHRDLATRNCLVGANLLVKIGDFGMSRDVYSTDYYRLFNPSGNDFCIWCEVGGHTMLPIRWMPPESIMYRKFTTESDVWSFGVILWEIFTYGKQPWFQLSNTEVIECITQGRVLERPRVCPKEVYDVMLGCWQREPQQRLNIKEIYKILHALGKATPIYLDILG

## O=C(Nc1ccc(F)nc1)C1CCN1c1nc2c(c(Nc3cc(C4CC4)[nH]n3)n1)CCC2 (racemic) [Compound 5, 1-(4-(5-cyclopropyl-1H-pyrazol-3-ylamino)-6,7-dihydro-5H-cyclopenta[d]pyrimidin-2-yl)-N-(6-fluoropyridin-3-yl)azetidine-2-carboxamide]
A549; [1]
  IC50: < 1 µM
COLO 205; [2]
  IC50: 0.1 µM
HCT-15; [1]
  IC50: < 10 µM
HCT-116; [1]
  IC50: < 10 µM
SW-620; [1]
  IC50: < 1 µM
BT-20; [3]
  IC50: < 10 µM
LNCaP; [4]
  IC50: 0.1 µM
MCF-7; [1]
  IC50: < 1 µM
MDA MB 175; [5]
  IC50: 1 µM
MDA MB 231; [1]
  IC50: < 10 µM
OVCAR-3; [1]
  IC50: < 1 µM
UACC 812; [6]
  IC50: < 100 µM
HCC 1187; [7]
  IC50: < 1 µM
IGF1R; activated IGF-1R, 30 nM, average, read-out: % Inh @ 30 nM Avg
  inhibition at 0.03 µM: 66%
IGF1R; [8]
  IC50: 1.3e-08 M and 1.7e-08 M
AXL
  inhibition of AXL in panel of 11 kinases: strongly inhibited
FAK2(PTK2b)
  inhibition of FAK2 in panel of 11 kinases: strongly inhibited
TRKC (NTRK3)
  inhibition of TrkC in panel of 11 kinases: strongly inhibited

## O=C(Nc1ccc(F)nc1)C1CCCN1c1nc2c(c(Nc3cc(C4CC4)[nH]n3)n1)CCC2 (single isomer, unassigned) [Compound 2b, 1-(4-(5-cyclopropyl-1H-pyrazol-3-ylamino)-6,7-dihydro-5H-cyclopenta[d]pyrimidin-2-yl)-N-(6-fluoropyridin-3-yl)pyrrolidine-2-carboxamide]
A549; 72 h
  IC50: 1 µM
A549; [1]
  IC50: < 1 µM
COLO 205; [2]
  IC50: < 0.1 µM
COLO 205; [9]
  IC50: < 0.01 µM
HCT-15; 72 h
  IC50: < 10 µM
HCT-15; [1]
  IC50: 1 µM
SW-620; 72 h
  IC50: 0.1 µM
SW-620; [1]
  IC50: < 1 µM
BT-20; [3]
  IC50: 1 µM
LNCaP; [4]
  IC50: < 1 µM
MCF-7; [1]
  IC50: 1 µM
MDA MB 175; [5]
  IC50: < 10 µM
MDA MB 231; [1]
  IC50: 1 µM
OVCAR-3; [1]
  IC50: < 1 µM
UACC 812; [6]
  IC50: < 10 µM
HCC 1187; [7]
  IC50: 0.1 µM
IGF1R; IGF-1R, ATP 100 μM, run N1
  Hill Slope N1: 1.195
IGF1R; [10]
  IC50: 7.24e-09 M
IGF1R; IGF-1R, ATP 100 μM, run N2
  Hill Slope N2: 1.384
IGF1R; [11]
  IC50: 5.29e-09 M
IGF1R; [8]
  IC50: 6.1e-09 M
AXL
  inhibition at 0.01 µM: 40 to 59%
AXL; [12]
  inhibition at 0.1 µM: > 60%
AXL; read-out: Average % Inh @ 1 μM
  inhibition at 1 µM: > 60%
TRKC (NTRK3)
  inhibition at 0.01 µM: > 60%
TRKC (NTRK3); [12]
  inhibition at 0.1 µM: > 60%
TRKC (NTRK3); read-out: Average % Inh @ 1 μM
  inhibition at 1 µM: > 60%

## O=C(Nc1cnccn1)C1CCCN1c1nc2c(c(Nc3cc(C4CC4)[nH]n3)n1)CCC2 (single isomer, unassigned) [Compound 6b]
A549; [1]
  IC50: < 1 µM
COLO 205; [2]
  IC50: < 0.1 µM
HCT-15; [1]
  IC50: 1 µM
HCT-116; [1]
  IC50: < 1 µM
SW-620; [1]
  IC50: < 1 µM
BT-20; [3]
  IC50: 1 µM
LNCaP; [4]
  IC50: 0.1 µM
MCF-7; [1]
  IC50: < 1 µM
MDA MB 175; [5]
  IC50: < 1 µM
MDA MB 231; [1]
  IC50: < 1 µM
OVCAR-3; [1]
  IC50: < 0.1 µM
UACC 812; [6]
  IC50: 1 µM
HCC 1187; [7]
  IC50: < 1 µM
IGF1R; [8]
  IC50: 6.5e-09 M
AXL
  inhibition of AXL in panel of 11 kinases: strongly inhibited
FAK2(PTK2b)
  inhibition of FAK2 in panel of 11 kinases: strongly inhibited
TRKC (NTRK3)
  inhibition of TrkC in panel of 11 kinases: strongly inhibited

## CC(C)c1cc(Nc2nc(N3CCCC3C(=O)Nc3ccc(F)nc3)nc3c2CCC3)n[nH]1 (single isomer, unassigned) [Compound 8b]
A549; 72 h
  IC50: < 10 µM
COLO 205; [9]
  IC50: < 0.01 µM
HCT-15; 72 h
  IC50: < 10 µM
HCT-116; 72 h
  IC50: 1 µM
SW-620; 72 h
  IC50: 1 µM
BT-20; BT-20, BT20, breast cancer, 72 h
  IC50: < 10 µM
LNCaP; prostate cancer, 72 h
  IC50: < 10 µM
MCF-7; 72 h
  IC50: < 10 µM
MDA MB 175; MDAMB175, breast cancer, 72 h
  IC50: < 10 µM
MDA MB 231; 72 h
  IC50: 10 µM
OVCAR-3; 72 h
  IC50: 1 µM
UACC 812; UACC-812, UACC812, breast cancer, 72 h
  IC50: < 10 µM
HCC 1187; HCC1187, breast cancer, 72 h
  IC50: < 10 µM
IGF1R; IGF-1R, ATP 100 μM, run N1
  Hill Slope N1: 1.042
IGF1R; [10]
  IC50: 3.11e-09 M
IGF1R; IGF-1R, ATP 100 μM, run N2
  Hill Slope N2: 1.307
IGF1R; [11]
  IC50: 5.49e-09 M
IGF1R; [8]
  IC50: 5.1e-09 M
AXL
  IC50: 0.00976 µM
  inhibition at 0.01 µM: 40 to 59%
AXL; read-out: Average % Inh @ 1 nM
  inhibition at 0.001 µM: < 39%
FAK2(PTK2b)
  IC50: 0.00236 µM
TRKC (NTRK3)
  IC50: 0.003 µM
  inhibition at 0.01 µM: > 60%
TRKC (NTRK3); read-out: Average % Inh @ 1 nM
  inhibition at 0.001 µM: > 60%
